Data from patent US8344022B2, “Vaginal health products” (Kimberly-Clark Worldwide, Inc., priority 2004, dated 2013).
Values joined by “and” are separate entries in the source; they are usually repeats but may differ in a detail not shown here. Identical values can stand only once. “Also recorded” adds a separate entry of the source.

How the values were obtained:
ME-180 cells = experiment: ME-180 cell growth (cell counting) with vitamin E or vitamin A derivatives; assay type: cell-based, human; details: for effect on ME-180 cell growth: 1 nM, 10 nM and 100 nM; for ME-180 cell growth vs negative control (FIG. 2): 1 μM or 10 μM, two days; for ME-180 cell growth: three days
Experimental: Cell Culture. Human cervical epithelial cells (ME-180, ATCC) were propagated in culture at 37° C. using 5% CO2 in McCoy's 5A media (Invitrogen) with 10% heat-inactivated fetal bovine serum (Invitrogen). Vitamin E was purchased from ICN Biomedicals. Vitamin E stock solutions were made up in absolute ethanol.
ME-180 cells were incubated with vitamin E at various concentrations for three days. At 10 μM vitamin E, ME-180 cell growth was inhibited (data not shown). However, this may be due to the presence of a larger concentration of ethanol (used as a solvent for vitamin E) in the media. […] At 1 μM vitamin E, ME-180 cell growth was enhanced more than the corresponding negative control. At 100 nM vitamin E, cell growth was not effected in comparison to the negative control. Therefore, a concentration of 1 μM vitamin E was used to measure changes in RNA expression over a 24 hour period.
Cell Proliferation of ME-180 Cells. ME-180 cells were incubated with vitamin A derivatives for a period of up to 3 days. ME-180 cells were counted on each day.

[1] = tested on: estrogen receptor alpha (ER-α); experiment: RT-PCR expression assay in ME-180 cells: ER-α; assay type: cell-based, human; details: 100 nM vitamin A, no serum, 4, 8 and 16 hours
Experimental: Cell samples exposed to vitamin A in the absence of serum were also tested for expression of other genes that may also affect atrophic vaginitis. Using primers designed to amplify the estrogen receptor alpha (ER-α) gene, PCR was performed using the RNA samples from cells starved of serum. The ER-α product (650 bp) was visible in the control (FIG. 4, lane 2), where the template was cDNA from ME-180 cells cultured in the presence of serum. […] However, in the samples that were exposed to 100 nM vitamin A but no serum for 4, 8, and 16 hours, the […] gene was expressed (Lanes 4-6, respectively). […] Increasing the amount of estrogen receptors on epithelial cells in the genital tract may increase the probability that a receptor will be activated by estrogen.

P2Y2 receptor gene = experiment: RT-PCR expression assay in ME-180 cells: P2Y2; assay type: cell-based, human
Experimental: (§1) RNA Extraction from ME-180 cells. ME-180 cells were plated at 2×10^5 cells per T75 flask (15 mL total volume) and were allowed to propagate for four days. On day four, the media was removed. Fifteen mL of McCoy's SA media with or without 10% FBS containing 0 or 1 μM vitamin E were added to ME-180 cells in duplicate. ME-180 cells were incubated with these solutions for 24 hours. The media was removed, and 1500 μL of lysis buffer was added to the flasks. The cells were scraped off of the flask with a cell scraper. The RNA was isolated using the Ambion RNAqueous kit according to the manufacturer's instructions. Precipitated RNA was resuspended in DEPC-treated water with 1 μL of RNase inhibitor.
(§2) Reverse Transcription of RNA. Approximately 7 μL of RNA was incubated with 3 μL of primer at 80° C. for 10 minutes then immediately placed on ice. A master mix containing 4 μL DEPC water, 4 μL 5× reaction buffer, 1 μL dNTPs, 1 μL of RNase inhibitor, and 1 μL of reverse transcriptase was made for the reactions. Ten μL of master mix was added to the RNA/primer solution and placed at 42° C. for 2 hours. The resulting cDNA was incubated with 3.5 μL of NaOH solution at 70° C. for 10 minutes to hydrolyze the remaining RNA. Five μL of 0.5M Tris/EDTA was added to neutralize the solution. To precipitate the cDNA, 125 μL of 3M NH4OAc, 5 μL of linear polyacrylamide, and 700 μL of absolute ethanol were added. The solutions were vortexed and placed at −20° C. overnight. Samples were centrifuged at 14000 rpm at 4° C. for 30 minutes. The ethanol was removed, and the samples were allowed to dry for 10 minutes. The cDNA was resuspended in 10-12 μL of PCR grade water.
Polymerase Chain Reaction (PCR). A master mix using the Advantage 2 PCR kit (Ambion) was made for the PCR reactions containing 37-38 μL of PCR grade water, 5 μL of 10×PCR buffer, 1 μL of dNTPs, 1 μL of β-actin primers (10 μM, optional control), and 2 μL of test primers (10 μM, P2Y2, or Mucin-4 (MUC-4)). Two microliters of cDNA and […] of DNA polymerase were added. […]

[2] = tested on: vascular endothelial growth factor (VEGF); experiment: RT-PCR expression assay in ME-180 cells: VEGF; assay type: cell-based, human
mucin-4 (MUC-4) = experiment: RT-PCR expression assay in ME-180 cells: mucin-4; assay type: cell-based, human; details: for MUC-4 expression: 100 nM vitamin A; for mucin-4 expression: 1 μM vitamin E, 24 hours
Experimental: as §1, §2
Polymerase Chain Reaction (PCR). A master mix using the Advantage 2 PCR kit (Ambion) was made for the PCR reactions containing 37-38 μL of PCR grade water, 5 μL of 10×PCR buffer, 1 μL of dNTPs, 1 μL of β-actin primers (10 μM, optional control), and 2 μL of test primers (10 μM, P2Y2, or Mucin-4 (MUC-4)). Two microliters of cDNA and […] of DNA polymerase were added. Cycling conditions were as follows: 5 min at 95° C.; 25-30 cycles (30 sec at 95° C., 1 min at 65° C., 3 min at 68° C.); 5 min at 68° C.
RNA was isolated (as described above) from ME-180 cervical cells treated with 0 nM or 100 nm vitamin A in the absence of serum. The RNA was reverse transcribed to form cDNA, and PCR techniques (as described above) were used to determine the effect of vitamin A on the expression of mucin-4 (MUC-4).

stratum corneum = experiment: Dansyl chloride cell renewal study in healthy female volunteers; assay type: in vivo, human
Excerpt: The stratum corneum renewal time is the time taken for the whole thickness of the stratum corneum to be exfoliated and replaced by new cells from the dividing epidermis. This renewal time is a fundamental indicator of skin health. […] See Jansen L H, Hojyo-Tomoko M T, Kligman A M., Improved fluorescence staining technique for estimating turnover of the human stratum corneum, Br J Dermatol., 90, 9-12, 1974; Ridge B D, Batt M D, Palmer H E, Jarrett A, The dansyl chloride technique for stratum corneum renewal as an indicator of changes in epidermal mitotic activity following topical treatment., Br J Dermatol., 118, 167-74, 1988; Grove G L, Kligman A M, Age-associated changes in human epidermal cell renewal., J Geron., 38, 137-142, 1983. The time required for the dye to disappear is therefore an indication of the turnover time of the stratum corneum. Therefore, any differences in the time required for the dye to disappear from treated and non-treated sites can be considered to be an expression of that product's ability to enhance epidermal renewal.
A dansyl chloride cell renewal study was conducted in healthy female volunteers ranging from 43-64 years of age. The study consisted of a two-week treatment period during which time the products were applied topically twice daily, including on weekend days, to the test sites. The area of application was designated, approximately 5 cm×10 cm on the upper inner arm. The other arm served as a control with no product application. […] Eight females received jasmonic acid and seven females received gibberellic acid.
The time required for a marker dye to disappear was used as the measure of cell renewal rate.

[3] = tested on: fibronectin production in human skin fibroblast cell line; experiment: Fibronectin production by human skin fibroblasts (Takara EIA MK115); assay type: cell-based; details: all concentrations tested, vs control
Experimental: The cells were first grown in a 96-well assay system using Dulbecco's Modified Eagle's Medium (DMEM) with 10% fetal bovine serum (FBS) both purchased from Sigma Chemical Co, St. Louis, Mo. Serum-free DMEM was used as a control. […] The fibronectin assay was performed using the recommended 100 μl of the supernatant from each well of the 96-well plate. Standard buffer and stop solutions were freshly prepared before running the assay. A pre-antibody-coated 96 well plate (provided with the kit) was used to transfer the test samples and control. The plate was mixed, sealed and incubated for 1 hour at 37° C. All the wells were washed after removing sample solutions, 3 times (300 μl) with washing buffer. 100 ul of antibody-POD conjugate solution was added into the wells. Plate was mixed, sealed and incubated for one hour at 37° C. Solutions were removed and the wells were washed 3 times with washing buffer. All the wells were completely emptied at the end of washing from any liquid. 100 μl of substrate solution (hydrogen peroxide and tetramethylbenzidine in a buffered solution) was added to each well and the plate was incubated at room temperature for 15 minutes. 100 μl of stop solution (freshly prepared 1N H2SO4) was added to each well in the same order as substrate. The plate was gently mixed and absorbance was read at 450 nm.

[4] = tested on: collagen production in human skin fibroblast cell line; experiment: Collagen production by human skin fibroblasts (Takara EIA MK101); assay type: cell-based; details: 1×10^−4 to 1×10^−6 M
Experimental: The cells were first grown in a 96-well assay system using Dulbecco's Modified Eagle's Medium (DMEM) with 10% fetal bovine serum (FBS) both purchased from Sigma Chemical Co, St. Louis, Mo. Serum-free DMEM was used as a control.
The assay was done by using the recommended 20 ul of the supernatant from each well of the 96-well plate. Standard buffer and stop solutions were freshly prepared before running the assay. 100 ul of antibody-POD conjugate solution (supplied with the kit) was added into the wells using pre antibody coated 96 well plate (supplied with the kit). 20 ul of standard and test solutions (from the other 96-well plate containing fibroblasts) were added to appropriate wells. Plate was mixed gently, sealed and incubated for three hrs. at 37° C.
After incubation each well was washed carefully four times with PBS buffer (400 ul). All the wells were completely emptied at the end of washing from any liquid.
100 ul of substrate solution (hydrogen peroxide and tetramethylbenzidine in a buffer solution, supplied with the kit) was added to each well and the plate was incubated for 15 minutes. At this point 100 ul of stop solution (freshly prepared 1N H2SO4) was added to each well in the same order as substrate. The plate was gently mixed and absorbance was read at 450 nm.

human skin keratinocytes = experiment: Keratinocyte proliferation, 96-well Cell Titer 96 assay; assay type: cell-based; details: 1×10^−4 to 1×10^−6 M
Experimental: The proliferative response of these human skin keratinocytes to the test compounds was measured in a 96-well assay system using keratinocyte basal medium (KBM, Clonetics, catalog number CC-3103) as a control. […] In addition, 100 μl of vehicle KBM was added to 5 wells as control. […] The spectrophotometric absorbance of each well was read at 490 nm.

DTR = experiment: RT-PCR expression assay in ME-180 cells: DTR; assay type: cell-based, human; details: 1 μM vitamin E, 24 hours, absence of serum
[5] = 1 μM vitamin E, 24 hours, absence of serum

CC1=C(/C=C/C(C)=C/C=C/C(C)=C/C(=O)O)C(C)(C)CCC1 [trans-retinoic acid]
toxicity (conclusion of the ME-180 experiments) (ME-180 cells): nontoxic
ME-180 cell growth compared with other agents or unexposed control (ME-180 cells; 1 nM to 100 nM experiment): growing slightly faster
effect on ME-180 cell growth (ME-180 cells): little effect
ME-180 cell growth vs negative control (FIG. 2) (ME-180 cells): more cells were present
ER-α expression [1]: expressed; also recorded: increase
P2Y2 expression (P2Y2 receptor gene; 100 nM vitamin A, in the presence and in the absence of serum): increase
VEGF expression ([2]; 100 nM vitamin A): increased
MUC-4 expression (mucin-4 (MUC-4); absence of serum, 4 hours or 8 hours): detectable
MUC-4 expression (mucin-4 (MUC-4); absence of serum, 16 hours): decreases but is still detectable

CC1=C(/C=C/C(C)=C/C=C/C(C)=C\C(=O)O)C(C)(C)CCC1 [13-cis-retinoic acid]
effect on ME-180 cell growth (ME-180 cells): little effect
ME-180 cell growth vs negative control (FIG. 2) (ME-180 cells): did not grow as well as the negative control
toxicity to ME-180 cells (ME-180 cells; micromolar concentrations): toxic

C=C1C[C@]23C[C@@]1(O)CC[C@H]2[C@@]12C=C[C@H](O)[C@@](C)(C(=O)O1)[C@H]2[C@@H]3C(=O)O [gibberellic acid, Gibberellin A3]
skin irritation or redness (stratum corneum; 0.25% topical twice daily, two weeks, all study volunteers): no visible sign of any skin irritation or redness
RENEWAL, time for cell renewal of treated skin (stratum corneum; individual patients (one value per patient #), 0.25% in hyaluronic acid (0.5% aqueous solution), topical twice daily, upper inner arm, listed as GA): 14 Days (2×) and 12 Days (2×) and 19 Days and 17 Days and 21 Days
faster cell renewal rate over control (stratum corneum; overall, 0.25% topical, vs untreated arm): 20%
reduction in time required for cell renewal vs untreated control (stratum corneum; vs volunteers' control without treatment): about 20%
fibronectin production in human fibroblasts (summary in words) [3]: effective
collagen production in human fibroblasts (summary in words) [4]: stimulate collagen production
cell proliferating activity on human keratinocytes (summary in words) (human skin keratinocytes): strong cell proliferating activity

vitamin E
ME-180 cell growth (ME-180 cells; 100 nM vitamin E, vs negative control): not effected
ME-180 cell growth (ME-180 cells; 1 μM vitamin E, vs negative control): enhanced
ME-180 cell growth (ME-180 cells; 10 μM vitamin E, ethanol control also showed no growth): inhibited
P2Y2 expression (P2Y2 receptor gene; [5]): no observable difference
P2Y2 expression (P2Y2 receptor gene; 1 μM vitamin E, 24 hours, presence of serum): no significant changes
VEGF expression [2, 5]: no observable difference
mucin-4 expression (mucin-4 (MUC-4); absence of serum): increases; also recorded: significantly increased
mucin-4 expression (mucin-4 (MUC-4); presence of serum): no significant changes
DTR expression (DTR): no observable difference

CC1=C(/C=C/C(C)=C\C=C\C(C)=C\C(=O)O)C(C)(C)CCC1 [9-cis-retinoic acid]
effect on ME-180 cell growth (ME-180 cells): little effect
